Data: ChEMBL document CHEMBL1156829 (Proc Natl Acad Sci U S A, 2008)

Columns and labels:
[1] = tested on: Plasmodium falciparum; test: NOVARTIS: Inhibition of Plasmodium falciparum 3D7 (drug-susceptible) proliferation in erythrocyte-based infection assay; type: functional, organism-based; details: Plasmodium falciparum, 3D7
[2] = tested on: Plasmodium falciparum; test: NOVARTIS: Inhibition of Plasmodium falciparum W2 (drug-resistant) proliferation in erythrocyte-based infection assay; type: functional, organism-based; details: Plasmodium falciparum, W2; read-out: EC50
[3] = NOVARTIS: Cytotoxicity against human hepatocellular carcinoma cell line (Huh7); type: toxicity, cell-based, Huh-7; details: Huh7 cells (hepatocellular carcinoma cell line)

| SMILES | EC50 [1] [µM] | EC50 [2] [µM] | CC50 [3] [µM] |
| --- | --- | --- | --- |
| O=C(NN=CC(Br)=Cc1ccccc1)c1ccc(F)cc1 | 0.981 | 0.618 | > 10 |
| CN(C)c1ccc(/C=C2\SC(=Nc3ccc(O)cc3)NC2=O)cc1 | 1.14 | 0.526 | 8.59 |
| COc1ccc2nc(C)cc(Nc3ccc(Oc4ccc(Cl)cc4)c(Cl)c3)c2c1 | 0.171 | 0.571 | 9.34 |
| COc1ccc(C2c3cccn3-c3ccccc3N2C(=O)CN(C(=O)Nc2ccc(C(F)(F)F)cc2)C2CC2)cc1 (centres undefined) | 7.51 | 6.2 | > 100 |
| CCCCCCN(C(=O)c1ccc2ccccc2c1)C(CC)c1nc2ccccc2c(=O)n1-c1ccccc1OC (centres undefined) | 0.641 | 0.631 | > 10 |
| CCOC(=O)C1(CC)CC(C)(C(=O)C[n+]2cccc(Br)c2)OC1=O (centres undefined) | 0.41 | 0.628 | > 10 |
| CC1CCN(C(=O)C2CCCN(S(=O)(=O)c3ccc4[nH]c(-c5ccccc5)nc4c3)C2)CC1 (centres undefined) | > 12.5 | 6.03 | > 100 |
| COc1ccc(C(=O)C(C)[n+]2ccccc2-c2ccccn2)cc1 (centres undefined) | 0.602 | > 0.751 | > 12.1 |
| Cc1ccc(C(=O)NCCN2CCCCC2)cn1 | > 1.31 | 0.621 | > 10 |
| COc1cccc(CC2(CO)CCCN(Cc3sc(N4CCCC4)nc3Cl)C2)c1 (centres undefined) | > 12.5 | > 6.21 | > 100 |
| Cc1nc(-c2ccccc2)nc(C(=O)N2CCN(C(=O)/C=C/c3ccccc3)C(C)C2)c1C(=O)OC(C)C (centres undefined) | > 1.25 | 0.621 | > 10 |
| COCCNc1cc(-c2ccccn2)nc(-c2ccccn2)n1 | 0.44 | 0.624 | > 10 |
| CCN(CC)[P+](N(C)C[Si](C)(C)C)(N(CC)CC)N(CC)CC | 0.154 | 0.523 | 8.41 |
| CCN(CC)CCN(Cc1cc2ccc(C)cc2[nH]c1=O)C(=S)NC(C)c1ccccc1 (centres undefined) | 1.69 | 1.33 | 21.5 |
| CC(C)CC(NC(=O)/C(=C\c1ccco1)NC(=O)c1ccccc1)C(=O)OCc1ccccc1 (centres undefined) | > 1.25 | > 0.625 | > 10 |
| CCCCN(CC(=O)N1c2ccccc2-n2cccc2C1c1ccc(OC)cc1)C(=O)Nc1cccc(F)c1 (centres undefined) | 8.6 | 6.25 | > 100 |
| Cc1oc2c(c1C(=O)N1CCN(C)CC1)C(=O)c1ccccc1C2=O | 0.829 | 0.335 | 5.46 |
| CCN(CC)CCCN(Cc1cc2cc(OC)ccc2[nH]c1=O)C(=S)Nc1ccc(C)cc1 | 3.41 | 2.02 | 33 |
| CC(C)CNC(=O)c1cnc(NCCCn2ccnc2)nc1NCCc1ccccc1 | 0.6 | 0.61 | > 10 |
| COc1ccc([N+](=O)[O-])cc1-c1ccc(/C=C(\C#N)c2nn(CCO)c(N)c2C#N)o1 | 0.88 | 0.607 | > 10 |
| COc1ccc(C2=NN(C(=O)CCC(=O)O)C(c3ccccc3F)C2)cc1 (centres undefined) | > 1.25 | 0.606 | > 10 |
| CCC(C(=O)Nc1sccc1C#N)c1ccccc1 (centres undefined) | > 0.971 | > 0.612 | > 10 |
| CCCCCC(=O)N(CCN(C)C)C(CC)c1nc2ccccc2c(=O)n1-c1ccc(F)cc1 (centres undefined) | > 1.25 | > 0.628 | > 10 |
| COc1ccc2[nH]cc(CCNC(=O)Oc3ccccc3)c2c1 | > 1.29 | 0.604 | > 10 |
| CCOc1ccc2nc(C)cc(Nc3ccc(OCc4ccccc4Cl)cc3)c2c1 | 0.142 | 0.357 | 5.84 |
| O=C(NCc1ccco1)C1CCCN(c2cccc3c2C(=O)N(CCc2cccc(F)c2)C3=O)C1 (centres undefined) | > 1.4 | > 0.611 | > 10 |
| COc1cc(NC(C)CCCN(Cc2ccccc2OC)C(=O)Nc2ccccc2OC)c2ncccc2c1 (centres undefined) | 0.847 | 0.614 | > 10 |

| SMILES | EC50 [1] [µM] | EC50 [2] [µM] | CC50 [3] [µM] |
| --- | --- | --- | --- |
| O=C(CSc1ccccc1)NCCCCNc1ccnc2cc(Cl)ccc12 | 0.488 | 0.632 | > 10 |
| CC(C)COc1ccc(C(=O)N/C(=C/c2ccccc2)C(N)=O)cc1 | > 1.25 | > 0.617 | > 10 |
| CCOC(=O)c1cnc2c(C)cc(Cl)cc2c1Nc1ccc(OC)c(OC)c1 | > 1.25 | > 0.726 | > 11.8 |
| O=C(Nc1ccccc1)C1Cc2ccccc2CN1S(=O)(=O)c1ccc(F)cc1 (centres undefined) | > 12.5 | 6.31 | > 100 |
| COc1cc(NC2=CC(=O)C(=O)c3ccccc32)c(OC)cc1Cl | 0.293 | 0.687 | 11.2 |
| CCCC1=[N+](CC(=O)c2ccc(C)cc2)CCn2c(C)ccc21 | 0.792 | > 0.618 | > 10 |
| O=C(NCCC(c1ccccc1)c1ccccc1)c1cccc([N+](=O)[O-])c1 | 0.302 | 0.618 | > 10 |
| CCCc1nc2ccc(NC(=O)NCC)cc2c(=O)n1Cc1ccc(-c2ccccc2)cc1 | 9.05 | 6.32 | > 100 |
| CC(C)(C)c1ccc(CNC(=O)C(Cc2ccc(O)cc2)c2ccccc2)cc1 (centres undefined) | > 8.68 | 3.27 | 53.2 |
| O=C1N(Cc2cc3ccccc3s2)CC2CN(Cc3ccoc3)CCN12 (centres undefined) | 1.08 | 0.619 | > 10 |
| COc1ccc(CN(C=O)/C=C2\Sc3ccccc3C2=O)cc1OC | > 1.25 | 0.617 | > 10 |
| COc1ccc(CC(=O)N(CCCC(C)Nc2cc(OC)cc3cccnc23)Cc2ccc(OC)c(OC)c2)cc1 (centres undefined) | 1.2 | 0.666 | > 10.8 |
| N#Cc1cc(Oc2ccc(-c3cnc4ccccc4n3)cc2)nc2ccccc12 | > 12.5 | 6.15 | > 100 |
| O=C(c1ccccc1)N1CCN(CC(O)COCc2ccccc2)CC1 (centres undefined) | > 1.25 | 0.618 | > 10 |
| CC(C)c1ccc(/C=C/C(=O)NCc2ccco2)cc1 | 0.89 | 0.628 | > 10 |
| CCCCCCN(C(=O)c1ccc(Cl)cc1)C(CC)c1nc2ccccc2c(=O)n1-c1ccccc1OC (centres undefined) | 0.952 | 0.607 | > 10 |
| CN(C)C(=O)NCCCCNc1ccnc2cc(Cl)ccc12 | 0.992 | 0.609 | > 10 |
| CC1CCN(c2nncc3ccccc23)CC1 | > 12.5 | > 6.05 | > 100 |
| O=[N+]([O-])c1ccc(-c2nc3ccccc3n2-c2cc(-c3ccccc3)nn2-c2ccccc2)cc1 | > 1.62 | > 0.611 | > 10 |
| CCC(=O)OC(C(C)C(=O)O)C(C)C1OC2(CCC(C)(C3CCC(C)(C4OC(C5OC(O)(CO)C(C)CC5C)CC4C)O3)O2)CC(O)C1C (centres undefined) | 0.379 | 0.387 | > 6.25 |
| COc1ccc([C@]23Oc4cc(OC)cc(OC)c4[C@@]2(O)[C@@H](O)C(C(=O)N(C)C)[C@@H]3c2ccccc2)cc1 (some centres undefined) | > 0.602 | 0.63 | > 10 |
| COc1cc(OC)cc(N2C(=O)N(Cc3ccc(C(C)(C)C)cc3)c3ccccc3S2(=O)=O)c1 | 3.75 | 6.3 | > 100 |
| COC(=O)C1=C(C)NC(=Cc2cc(C)n(-c3ccc(Cl)c(Cl)c3)c2C)C1=O | 6.9 | 6.32 | > 100 |
| Cc1c(C(=O)N2CCC3(CCN(C)C3)C2)cnn1-c1ncc2c(n1)-c1ccccc1SC2 (centres undefined) | 1.56 | 0.603 | > 10 |
| OCCN1CCN(c2cc(-c3cccnc3)nc(-c3ccncc3)n2)CC1 | 0.945 | 0.626 | > 10 |
| CN(C)c1ccc(C(=Cc2cc(-c3ccccc3)cc(-c3ccccc3)[o+]2)c2ccc(N(C)C)cc2)cc1 | 1.99 | 0.898 | 14.4 |
